Test results from the NIST ThermoML archive (doi:10.1016/j.jct.2012.12.007).
± gives the expanded uncertainty stated by the source.

Assay: xn = mol fraction of the nth substance listed
Conditions: 101.3 kPa, Liquid; for speed of sound: Sing-around technique in a fixed-path interferometer; for mass density: Vibrating tube method

CCOCCOCCOCC [diethylene glycol diethyl ether] + CCCCCCCCCCO
Conditions	mass density [kg/m3]	speed of sound [m/s]
293.15 K, x2 = 0.0632	901.86 ± 0.23	1267.1 ± 1.2
293.15 K, x2 = 0.1084	897.94 ± 0.23	1272.6 ± 1.2
293.15 K, x2 = 0.2052	889.79 ± 0.23	1284.5 ± 1.2
293.15 K, x2 = 0.294	882.49 ± 0.23	1295.5 ± 1.2
293.15 K, x2 = 0.393	874.57 ± 0.23	1308.1 ± 1.2
293.15 K, x2 = 0.4943	866.66 ± 0.23	1321.4 ± 1.2
293.15 K, x2 = 0.543	862.92 ± 0.23	1327.9 ± 1.2
293.15 K, x2 = 0.5932	859.11 ± 0.23	1334.7 ± 1.2
293.15 K, x2 = 0.6872	852.12 ± 0.23	1348.1 ± 1.2
293.15 K, x2 = 0.7863	844.92 ± 0.23	1363 ± 1.2
293.15 K, x2 = 0.8872	837.76 ± 0.23	1378.8 ± 1.2
293.15 K, x2 = 0.9441	833.82 ± 0.23	1388.1 ± 1.2
298.15 K, x2 = 0.0605	897.98 ± 0.23	1247.8 ± 1.2
298.15 K, x2 = 0.111	893.68 ± 0.23	1254.1 ± 1.2
298.15 K, x2 = 0.1588	889.69 ± 0.23	1260.1 ± 1.2
298.15 K, x2 = 0.2062	885.79 ± 0.23	1266.1 ± 1.2
298.15 K, x2 = 0.302	878.08 ± 0.23	1278.3 ± 1.2
298.15 K, x2 = 0.3947	870.77 ± 0.23	1290.4 ± 1.2
298.15 K, x2 = 0.504	862.39 ± 0.23	1305 ± 1.2
298.15 K, x2 = 0.592	855.8 ± 0.23	1317.3 ± 1.2
298.15 K, x2 = 0.6553	851.16 ± 0.23	1326.4 ± 1.2
298.15 K, x2 = 0.7443	844.72 ± 0.23	1339.5 ± 1.2
298.15 K, x2 = 0.7923	841.32 ± 0.23	1347 ± 1.2
298.15 K, x2 = 0.8362	838.23 ± 0.23	1353.8 ± 1.2
298.15 K, x2 = 0.8836	834.93 ± 0.23	1361.4 ± 1.2
298.15 K, x2 = 0.94	831.05 ± 0.23	1370.4 ± 1.2
303.15 K, x2 = 0.0605	893 ± 0.23	1229.6 ± 1.2
303.15 K, x2 = 0.1016	889.54 ± 0.23	1234.8 ± 1.2
303.15 K, x2 = 0.154	885.23 ± 0.23	1241.6 ± 1.2
303.15 K, x2 = 0.2064	880.99 ± 0.23	1248.3 ± 1.2
303.15 K, x2 = 0.2953	873.94 ± 0.23	1260 ± 1.2
303.15 K, x2 = 0.3846	867.02 ± 0.23	1271.7 ± 1.2
303.15 K, x2 = 0.5006	858.29 ± 0.23	1287.6 ± 1.2
303.15 K, x2 = 0.5369	855.6 ± 0.23	1292.7 ± 1.2
303.15 K, x2 = 0.6486	847.46 ± 0.23	1308.7 ± 1.2
303.15 K, x2 = 0.7409	840.9 ± 0.23	1322.6 ± 1.2
303.15 K, x2 = 0.7915	837.36 ± 0.23	1330.4 ± 1.2
303.15 K, x2 = 0.8318	834.56 ± 0.23	1336.7 ± 1.2
303.15 K, x2 = 0.8856	830.89 ± 0.23	1345.4 ± 1.2
303.15 K, x2 = 0.9364	827.44 ± 0.23	1353.5 ± 1.2

CCOCCOCCOCC [diethylene glycol diethyl ether] + CCCCO
Conditions	mass density [kg/m3]	speed of sound [m/s]
293.15 K, x2 = 0.1284	901.3 ± 0.2	1262.2 ± 1.1
293.15 K, x2 = 0.2205	896.11 ± 0.19	1263.3 ± 1.1
293.15 K, x2 = 0.319	889.85 ± 0.17	1264.1 ± 1
293.15 K, x2 = 0.3623	886.86 ± 0.16	1264.3 ± 1
293.15 K, x2 = 0.4157	882.92 ± 0.16	1264.5 ± 1
293.15 K, x2 = 0.4529	879.96 ± 0.15	1264.4 ± 0.9
293.15 K, x2 = 0.4963	876.35 ± 0.15	1264.4 ± 0.9
293.15 K, x2 = 0.5481	871.71 ± 0.14	1264.3 ± 0.9
293.15 K, x2 = 0.6523	861.3 ± 0.13	1263.6 ± 0.8
293.15 K, x2 = 0.7018	855.73 ± 0.13	1263.3 ± 0.8
293.15 K, x2 = 0.7934	844.15 ± 0.12	1262.1 ± 0.8
293.15 K, x2 = 0.8942	829.14 ± 0.12	1260.2 ± 0.7
293.15 K, x2 = 0.9397	821.36 ± 0.12	1258.9 ± 0.7
298.15 K, x2 = 0.1245	896.77 ± 0.2	1242.5 ± 1.1
298.15 K, x2 = 0.2149	891.76 ± 0.19	1243.8 ± 1.1
298.15 K, x2 = 0.3175	885.38 ± 0.17	1244.9 ± 1
298.15 K, x2 = 0.4078	879 ± 0.16	1245.5 ± 1
298.15 K, x2 = 0.4543	875.4 ± 0.15	1245.6 ± 0.9
298.15 K, x2 = 0.5047	871.25 ± 0.15	1245.7 ± 0.9
298.15 K, x2 = 0.5543	866.84 ± 0.14	1245.7 ± 0.9
298.15 K, x2 = 0.6137	861.13 ± 0.14	1245.5 ± 0.9
298.15 K, x2 = 0.6973	852.18 ± 0.13	1245.3 ± 0.8
298.15 K, x2 = 0.7951	840.07 ± 0.12	1244.5 ± 0.8
298.15 K, x2 = 0.8466	832.8 ± 0.12	1243.9 ± 0.8
298.15 K, x2 = 0.9449	816.86 ± 0.12	1241.7 ± 0.7
303.15 K, x2 = 0.0738	894.47 ± 0.22	1223.5 ± 1.1
303.15 K, x2 = 0.1419	890.96 ± 0.2	1224.8 ± 1.1
303.15 K, x2 = 0.218	886.73 ± 0.19	1225.9 ± 1.1
303.15 K, x2 = 0.302	881.57 ± 0.17	1227 ± 1
303.15 K, x2 = 0.3764	876.51 ± 0.16	1227.7 ± 1
303.15 K, x2 = 0.5002	866.9 ± 0.15	1228.3 ± 0.9
303.15 K, x2 = 0.5541	862.16 ± 0.14	1228.4 ± 0.9
303.15 K, x2 = 0.6056	857.29 ± 0.14	1228.5 ± 0.9
303.15 K, x2 = 0.6997	847.32 ± 0.13	1228.4 ± 0.8
303.15 K, x2 = 0.7961	835.44 ± 0.13	1227.9 ± 0.8
303.15 K, x2 = 0.8493	827.96 ± 0.13	1227.4 ± 0.8
303.15 K, x2 = 0.8896	821.8 ± 0.13	1226.8 ± 0.7
303.15 K, x2 = 0.9431	812.86 ± 0.12	1225.8 ± 0.7
